The structures appear in SMILES notation. Read-outs that look alike come from different tables or passages of the source.

Series [1] deals with HeLa, human cervical epithelioid carcinoma. The series can be described thus: Cytotoxicity assay (MTT), HeLa. The settings on record: read-out: Cytotoxicities (IC50), HeLa, 72 h, MTT.
Series [2] addresses T1, thioredoxin reductase (TrxR) (Homo sapiens, UniProt Q16881).
T1 sequence (Q16881 1-649): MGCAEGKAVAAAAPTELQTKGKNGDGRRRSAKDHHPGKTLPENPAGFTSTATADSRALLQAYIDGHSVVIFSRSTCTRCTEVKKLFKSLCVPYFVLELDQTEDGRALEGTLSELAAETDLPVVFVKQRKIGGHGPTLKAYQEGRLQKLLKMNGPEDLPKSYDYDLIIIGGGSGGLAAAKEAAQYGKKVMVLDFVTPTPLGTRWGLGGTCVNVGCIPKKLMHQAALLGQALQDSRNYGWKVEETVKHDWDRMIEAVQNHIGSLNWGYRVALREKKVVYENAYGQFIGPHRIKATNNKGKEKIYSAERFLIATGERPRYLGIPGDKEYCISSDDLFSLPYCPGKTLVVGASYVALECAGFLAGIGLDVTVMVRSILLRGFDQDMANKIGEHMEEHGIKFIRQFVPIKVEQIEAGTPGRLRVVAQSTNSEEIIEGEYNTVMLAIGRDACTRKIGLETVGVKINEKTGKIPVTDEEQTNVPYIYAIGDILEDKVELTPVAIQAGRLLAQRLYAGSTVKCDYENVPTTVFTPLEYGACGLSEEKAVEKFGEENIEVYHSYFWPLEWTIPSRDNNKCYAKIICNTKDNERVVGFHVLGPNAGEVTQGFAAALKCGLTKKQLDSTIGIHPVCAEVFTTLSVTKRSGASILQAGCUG
The series can be described thus: Cellular thioredoxin reductase activity of treated HeLa cells. Type of series: cell-based. The conditions noted are these: one-hour treatment. On the procedure: Cells were seeded at 2×10^5/well in 6-well plates and incubated for 24 hours. The metal thiourea compounds (10^−9 to 10^−4 M) were serially diluted and added to the cells (final DMSO concentrations≦1%). After an one-hour incubation, cells were washed thrice with phosphate buffered saline and 100 μL ice-cold lysis buffer (50 mM phosphate buffer, pH 7.4, 1 mM EDTA, 0.1% Triton-X 100) were added to the cell layer. Cell lysis was carried on ice for 5 minutes and the cell lysates were collected and stored at −80° C. or assayed immediately. Cell lysates (10 μg proteins) were added to a mixture (100 μL) containing 100 mM phosphate, pH 7.4, 1 mM EDTA and 0.2 mM NADPH.

Series [3] is described as follows: Cytotoxicity assay (MTT), HepG2. The conditions noted are these: human, HepG2 cells.
Series [4] is described as follows: Cytotoxicity assay (MTT), NCI-H460. The conditions noted are these: human, NCI-H460 cells.
Series [5] addresses T2, Glutathione reductase (GR) (Homo sapiens, UniProt P00390).
T2 construct: endogenous in cells; host or cells: HeLa
T2 sequence (P00390 44-522): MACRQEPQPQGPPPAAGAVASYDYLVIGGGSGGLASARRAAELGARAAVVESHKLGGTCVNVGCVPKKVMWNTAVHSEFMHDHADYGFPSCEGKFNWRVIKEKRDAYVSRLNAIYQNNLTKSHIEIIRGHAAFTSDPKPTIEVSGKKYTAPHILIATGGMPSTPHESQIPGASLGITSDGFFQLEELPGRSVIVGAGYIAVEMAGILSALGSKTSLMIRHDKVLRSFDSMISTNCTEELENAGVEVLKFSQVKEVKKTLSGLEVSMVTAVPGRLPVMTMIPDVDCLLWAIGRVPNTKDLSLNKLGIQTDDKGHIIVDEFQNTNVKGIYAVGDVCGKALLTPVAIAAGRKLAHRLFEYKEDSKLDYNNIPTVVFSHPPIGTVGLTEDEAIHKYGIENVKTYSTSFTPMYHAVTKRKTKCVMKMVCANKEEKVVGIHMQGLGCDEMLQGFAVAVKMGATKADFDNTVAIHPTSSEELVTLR
Put plainly: Cellular glutathione reductase activity of treated HeLa cells. The settings on record: one-hour treatment, up to 100 μM. The series is classed as cell-based. On the procedure:
(§1) Cells were seeded at 2×10^5/well in 6-well plates and incubated for 24 hours. The metal thiourea compounds (10^−9 to 10^−4 M) were serially diluted and added to the cells (final DMSO concentrations≦1%). After an one-hour incubation, cells were washed thrice with phosphate buffered saline and 100 μL ice-cold lysis buffer (50 mM phosphate buffer, pH 7.4, 1 mM EDTA, 0.1% Triton-X 100) were added to the cell layer. Cell lysis was carried on ice for 5 minutes and the cell lysates were collected and stored at −80° C. or assayed immediately.
Cell lysates (10 μg proteins) were added to a mixture containing 100 mM phosphate, pH 7.4, 1 mM EDTA, 1 mM GSSG and 0.2 mM NADPH. Reaction was initiated by adding DTNB (3 mM final) and the increases in O.D.412 nm were measured for 10 min. GR activities were determined by subtracting the increases in O.D.412 nm in the absence of GSSG.

Series [6] deals with panel of cancer cell lines. The settings on record: Homo sapiens, read-out: half maximal inhibitory concentrations (IC50), panel of cancer cell lines.
In series [7] the test system is glutathione peroxidase (GPx). The series can be described thus: Cellular glutathione peroxidase activity of treated HeLa cells. Type of series: cell-based, human. The conditions noted are these: one-hour treatment. The procedure:
as §1
Cell lysates (10 μg proteins) were added to a mixture containing 100 mM phosphate, pH 7.4, 2 mM GSH, 1 U glutathione reductase, and 0.2 mM NADPH. Reaction was initiated by adding tert-butyl hydroperoxide (300 μM) and the NADPH oxidation was measured as decreases in O.D.340 nm in 10 min. GPx activities (ΔO.D.340 nm/min) were determined by subtracting the spontaneous NADPH oxidation in the absence of tert-butyl hydroperoxide.

The nature of series [8]: Cytotoxicity assay (MTT), SUNE1. The settings on record: human, SUNE1 cells.
A short description of series [9]: Cytotoxicity assay (MTT), HeLa. The conditions noted are these: human, HeLa cells.
Series [10] concerns HeLa, human cervical epithelioid carcinoma.
The test system of series [11] is SUNE1, human nasopharyngeal carcinoma.
In series [12] the test system is NCI-H460 = human lung carcinoma.
For series [13], the system named is HepG2, human hepatocellular carcinoma.
Series [14] concerns NCI-H460 non-small cell lung cancer cells. The series is classed as in vivo, mice. The procedure: The in vivo experiment was conducted in Pearl Materia Medica Development (Shenzhen) Limited and performed with approval from the Committee on the Use of Live Animals for Teaching and Research. SPF grade four-week-old female BALB/c AnN-nu mice (nude mice, 16-18 g) were purchased. Tumor cells (5×10^6) resuspended in RPMI medium were implanted by subcutaneous injection on the right flank of the mice. When tumors were approximately 50 mm^3 in size, animals were randomly separated into 3 groups to receive treatment of twice-a-week intraperitoneal injection of 10% PET vehicle control (where 10% PET=6% polyethylene glycol 400, 3% ethanol, 1% Tween 80 and 90% PBS), complex 1 (100 mg/kg) or cyclophosphamide (30 mg/kg) for 8 times. After 28 days, the mice were sacrificed and the tumors were isolated and weighted.

With `O=[N+]([O-])[O-].[Ag+]` [AgNO3, reference compound], the IC50 in [1] came to 32.1 ± 1.2 µM.

Take `COc1ccc(N2CCN(c3ccc(OC)cc3)C2=S)cc1` [TU, 1,3-bis(4-methoxyphenyl)imidazolidine-2-thione, reference compound]: the “effect on cellular TrxR activity, added up to 100 μM” value in series [2] is listed as “not affected”. The IC50 at 72 h in series [3], in series [4], in [8] and in series [9] was above 100 µM in each case. Also, in series [5], the “effect on cellular GR activity, added up to 100 μM” value was “not affected”. Also, the IC50 in [6] is above 100 µM. In addition, the “effect on cellular GPx activity, added up to 100 μM” value in series [7] is on record as “not affected”.

Regarding `F[P-](F)(F)(F)(F)F.NC(N)=S.NC(N)=S.[Cu+]` [complex 3, [Cu(TU)2]PF6], the IC50 in series [10] was 12.7 ± 0.9 µM; in [11], 8.5 ± 1 µM; in series [12] it was 11.2 ± 0.9 µM; in series [13] it was 13 ± 0.9 µM. Moreover, the “effect on cellular TrxR activity, added up to 100 μM” value in [2] is on record as “not affected”. The “effect on cellular GR activity, added up to 100 μM” value in [5] was “not affected”. Also, the “effect on cellular GPx activity, added up to 100 μM” value in series [7] was “not affected”.

For the compound `O=P1(N(CCCl)CCCl)NCCCO1` (stereo not drawn) [cyclophosphamide], the “Tumor volume, Day 13” value in series [14] (Day 13, 30 mg/kg i.p. twice a week) is 325.041 ± 170.053 mm^3. Besides, the “Tumor volume, Day 17” value in series [14] (Day 17, 30 mg/kg i.p. twice a week) came out at 639.465 ± 422.362 mm^3. Besides, the “Tumor volume, Day 21” value in series [14] (Day 21, 30 mg/kg i.p. twice a week) is 1032.258 ± 594.026 mm^3. Besides, the “Tumor volume, Day 25” value in [14] (Day 25, 30 mg/kg i.p. twice a week) is 1474.100 ± 900.357 mm^3. The “Tumor volume, Day 29” value in [14] (Day 29, 30 mg/kg i.p. twice a week) turned out to be 1438.735 ± 845.815 mm^3.

Source of the values: patent publication US8722897B2, “Metal complexes of thiourea and derivatives as metal delivering anti-cancer and anti-inflammatory agents” (priority 2010, dated 2014).
